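96-well plates; 48 h exposure; 5 concentrations. Endpoints by linear interpolation between flanking doses. Not reached: highest tested concentration assigned. GI50 marks 50% less growth.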 Active and inactive are the calls of the source. No stated cut-off is given here; in the data, active = GI50 up to about 1.1 µM and inactive = higher.
How the values were obtained:
Assay in all cases: NCI-60 cell line screen, 48 h
HOP-92 = test system: HOP-92
KM12 = test system: KM12
A549 = test system: A549
LOX IMVI = test system: LOX IMVI
TK-10 = test system: TK-10
UO-31 = test system: UO-31
CAKI-1 = test system: CAKI-1
NCI-H226 = test system: NCI-H226
OVCAR-3 = test system: OVCAR-3
SK-OV-3 = test system: SK-OV-3
RPMI-8226 = test system: RPMI-8226
SF-539 = test system: SF-539
K562 = test system: K562
U-251 = test system: U-251
SK-MEL-5 = test system: SK-MEL-5
HL-60 = test system: HL-60
MOLT-4 = test system: MOLT-4
SR = test system: SR

Measured: GI50

Cc1ccc(NC(=O)C(=O)Cc2nc3ccccc3o2)c(C)c1
inactive: HOP-92 > 100 µM | KM12 > 100 µM | A549 > 100 µM | LOX IMVI > 100 µM | TK-10 > 100 µM | UO-31 > 100 µM | CAKI-1 > 100 µM | NCI-H226 > 100 µM | OVCAR-3 > 100 µM | SK-OV-3 > 100 µM | RPMI-8226 > 100 µM | SF-539 > 100 µM | K562 > 100 µM | U-251 > 100 µM

O=c1/c(=C/c2c(O)ccc3ccccc23)sc2nc3ccccc3n12
inactive: HOP-92 > 100 µM | KM12 > 100 µM | SK-MEL-5 > 100 µM | A549 > 100 µM | LOX IMVI > 100 µM | TK-10 > 100 µM | UO-31 > 100 µM | HL-60 > 100 µM | CAKI-1 > 100 µM | NCI-H226 > 100 µM | OVCAR-3 > 100 µM | SK-OV-3 > 100 µM | SF-539 > 100 µM | K562 > 100 µM | U-251 > 100 µM

Cc1nnc2sc(Cc3cnc(N)s3)nn12
inactive: HOP-92 > 100 µM | KM12 > 100 µM | SK-MEL-5 > 100 µM | A549 > 100 µM | TK-10 > 100 µM | UO-31 > 100 µM | HL-60 > 100 µM | MOLT-4 > 100 µM | NCI-H226 77.6 µM | SR > 100 µM | SK-OV-3 > 100 µM | RPMI-8226 > 100 µM | SF-539 > 100 µM | K562 > 100 µM | U-251 > 100 µM

O=[PH](O)c1ccsc1
inactive: HOP-92 86.5 µM | SK-MEL-5 > 100 µM | A549 > 100 µM | LOX IMVI > 100 µM | TK-10 > 100 µM | UO-31 > 100 µM | HL-60 > 100 µM | MOLT-4 > 100 µM | CAKI-1 52.1 µM | SK-OV-3 > 100 µM | RPMI-8226 > 100 µM | SF-539 > 100 µM | K562 > 100 µM | U-251 > 100 µM

COc1cc(C(C#N)NNc2nc(C)cc(O)n2)cc(OC)c1OC (stereo not given)
inactive: HOP-92 51.6 µM | KM12 > 100 µM | SK-MEL-5 > 100 µM | A549 > 100 µM | LOX IMVI > 100 µM | TK-10 > 100 µM | UO-31 75 µM | HL-60 > 100 µM | CAKI-1 > 100 µM | NCI-H226 > 100 µM | OVCAR-3 > 100 µM | SR 37.5 µM | SK-OV-3 > 100 µM | RPMI-8226 > 100 µM | SF-539 > 100 µM | K562 > 100 µM | U-251 > 100 µM

COc1ccc(/C=C/CN(C)CCc2ccccc2)cc1OC
inactive: HOP-92 4.89 µM | KM12 > 100 µM | SK-MEL-5 59.2 µM | A549 > 100 µM | TK-10 46 µM | UO-31 22.9 µM | MOLT-4 40.6 µM | NCI-H226 > 100 µM | OVCAR-3 73.3 µM | RPMI-8226 59.3 µM | K562 26.5 µM | U-251 86.9 µM

O=C(CCc1n[nH]c(=S)o1)Nc1cc(Cl)c(Cl)cc1Cl
inactive: HOP-92 48.8 µM | KM12 87.9 µM | SK-MEL-5 50.9 µM | A549 67.8 µM | TK-10 42.5 µM | UO-31 68.2 µM | HL-60 33.3 µM | MOLT-4 45 µM | CAKI-1 27.2 µM | NCI-H226 66.4 µM | OVCAR-3 41.8 µM | SK-OV-3 > 100 µM | RPMI-8226 20.5 µM | SF-539 52.7 µM | K562 18.9 µM | U-251 35.2 µM

O=C1CCC2CCc3cccc4oc1c2c34 (stereo not given)
inactive: HOP-92 75.5 µM | SK-MEL-5 > 100 µM | A549 > 100 µM | LOX IMVI > 100 µM | TK-10 > 100 µM | HL-60 > 100 µM | MOLT-4 96.2 µM | CAKI-1 > 100 µM | OVCAR-3 > 100 µM | SK-OV-3 > 100 µM | RPMI-8226 > 100 µM | SF-539 > 100 µM | K562 > 100 µM | U-251 > 100 µM

C=C1C(C(=O)O)C1C(=O)O (stereo not given)
inactive: HOP-92 > 100 µM | KM12 > 100 µM | SK-MEL-5 > 100 µM | A549 > 100 µM | LOX IMVI > 100 µM | TK-10 > 100 µM | UO-31 > 100 µM | HL-60 > 100 µM | MOLT-4 > 100 µM | CAKI-1 > 100 µM | NCI-H226 21.1 µM | SR > 100 µM | SK-OV-3 > 100 µM | RPMI-8226 > 100 µM | SF-539 > 100 µM | K562 > 100 µM | U-251 > 100 µM

O=C(CN(c1ccccc1)c1ccccc1)n1nnc2ccccc21
inactive: SK-MEL-5 20.7 µM | A549 28.6 µM | LOX IMVI 24.2 µM | TK-10 > 100 µM | UO-31 14.3 µM | HL-60 29.5 µM | MOLT-4 28.2 µM | CAKI-1 53 µM | NCI-H226 27.5 µM | OVCAR-3 44.6 µM | SR 24.8 µM | SK-OV-3 > 100 µM | RPMI-8226 34.8 µM | SF-539 24.4 µM | K562 37.8 µM | U-251 26.1 µM

CC(C)CC(NC(=O)OC(C)(C)C)C(=O)Nc1ccc(Nc2nc(F)nc(-c3c4ccccc4c4n3CCS4)n2)cc1 (stereo not given)
inactive: HOP-92 18.8 µM | KM12 26.7 µM | SK-MEL-5 23.7 µM | A549 48.4 µM | TK-10 28.8 µM | UO-31 19.7 µM | HL-60 21.9 µM | MOLT-4 16 µM | CAKI-1 18.2 µM | OVCAR-3 20.3 µM | SR 14.1 µM | SK-OV-3 18.8 µM | RPMI-8226 24.4 µM | SF-539 20.6 µM | K562 26.8 µM | U-251 18.8 µM

O=C(O)CCSC(=O)Nc1cccc([N+](=O)[O-])c1
inactive: KM12 > 100 µM | A549 > 100 µM | LOX IMVI 66.7 µM | TK-10 > 100 µM | UO-31 63 µM | HL-60 > 100 µM | MOLT-4 43.7 µM | CAKI-1 71.1 µM | OVCAR-3 > 100 µM | SR > 100 µM | RPMI-8226 > 100 µM | SF-539 > 100 µM | K562 > 100 µM | U-251 > 100 µM

CCOc1ccc([Se][Se]c2ccc(OCC)cc2)cc1
inactive: KM12 > 100 µM | A549 > 100 µM | TK-10 > 100 µM | UO-31 27.5 µM | CAKI-1 21 µM | NCI-H226 44.2 µM | OVCAR-3 > 100 µM | SR > 100 µM | RPMI-8226 28.1 µM | SF-539 > 100 µM | U-251 26.9 µM

CCOC(=O)C(NC(=O)c1nc[nH]c1[N+](=O)[O-])C(C)C (stereo not given)
inactive: KM12 > 100 µM | SK-MEL-5 17.3 µM | A549 > 100 µM | LOX IMVI > 100 µM | UO-31 > 100 µM | HL-60 27.6 µM | MOLT-4 72.4 µM | CAKI-1 > 100 µM | NCI-H226 30.8 µM | OVCAR-3 > 100 µM | SR 61.1 µM | SK-OV-3 > 100 µM | RPMI-8226 72.6 µM | SF-539 > 100 µM | K562 > 100 µM | U-251 34.5 µM

CCOC(=O)C1Sc2ccccc2N=C1C (stereo not given)
inactive: HOP-92 > 100 µM | KM12 > 100 µM | A549 > 100 µM | LOX IMVI > 100 µM | TK-10 > 100 µM | UO-31 > 100 µM | HL-60 > 100 µM | MOLT-4 > 100 µM | NCI-H226 > 100 µM | OVCAR-3 > 100 µM | SR > 100 µM | RPMI-8226 > 100 µM | SF-539 > 100 µM | K562 > 100 µM | U-251 > 100 µM

COC(=O)C(=O)C(C(=O)OC)C(=O)C(=O)Nc1cc(Cl)c(C)cc1S(=O)(=O)O (stereo not given)
inactive: KM12 > 100 µM | SK-MEL-5 > 100 µM | A549 > 100 µM | LOX IMVI > 100 µM | TK-10 > 100 µM | UO-31 > 100 µM | HL-60 > 100 µM | MOLT-4 > 100 µM | CAKI-1 > 100 µM | NCI-H226 > 100 µM | OVCAR-3 > 100 µM | SR > 100 µM | SK-OV-3 > 100 µM | SF-539 > 100 µM | K562 > 100 µM | U-251 > 100 µM

COc1cc2c(cc1O)[C@H](C)C(c1ccccc1OC)O2 (stereo not given in full)
inactive: HOP-92 8.2 µM | KM12 3.87 µM | SK-MEL-5 3.16 µM | A549 5.33 µM | LOX IMVI 4.67 µM | TK-10 20.3 µM | UO-31 8.57 µM | HL-60 2.6 µM | MOLT-4 4.65 µM | CAKI-1 5.98 µM | NCI-H226 22.4 µM | OVCAR-3 6.53 µM | SK-OV-3 3.01 µM | RPMI-8226 2.64 µM | SF-539 5.11 µM | K562 2.81 µM | U-251 2.34 µM

O=c1c(O)c(-c2ccc(O)c(O)c2)oc2cc(O)cc(O)c12 [QUERCETIN]
inactive: KM12 42.9 µM | SK-MEL-5 92 µM | A549 > 100 µM | LOX IMVI 18.9 µM | TK-10 > 100 µM | UO-31 77.1 µM | HL-60 21 µM | MOLT-4 76.9 µM | CAKI-1 > 100 µM | OVCAR-3 > 100 µM | SR 35.5 µM | SK-OV-3 52.7 µM | SF-539 47.5 µM | K562 67.8 µM | U-251 49.7 µM

Source: ChEMBL document CHEMBL1201862, “PubChem BioAssay data set” (2004)
